In US20220023419A1, “INHIBITING INFLAMMATION” (THE COUNCIL OF THE QUEENSLAND INSTITUTE OF MEDICAL RESEARCH, priority 2018, published 2022):

Tested on: EpCAM+ epithelial cells in intestinal organoids
Assay: Intestinal organoids from small intestine cultured with IFNγ, MHC class-II expression
Format: cell-based, mouse
Conditions: organoids from B6.MHC class-II-GFP or B6.WT mice cultured with IFNγ
Text: High levels of IFN-γ are secreted by both ILC1 and by conventional T cells in the small intestine. The mechanisms controlling MHC class-II expression by IEC, focusing on interferon (IFN) γ signalling were delineated, since this cytokine is known to potently induce MHC class-II expression. […] To understand the potential sources of IFNγ driving the expression of MHC class II, Rag^−/− common-γ-chain^−/− which lack innate lymphocyte populations, and Rag^−/− mice that lack only conventional TCR-rearranged T cells, were analyzed. […] After TBI-induced inflammation, conventional T cells were required for the upregulation of MHC class II in the ileum. […] In contrast, TBI induced IFN-γ secretion from conventional T cells (CD4^+ Tcon, CD8^+ Tcon) but not innate lymphocyte populations (not shown). […] Thus, constitutive MHC class-II expression on IEC in the ileum causes local T cell activation and IFNγ secretion, consistent with the induction of a local cytokine feed-forward cascade that amplifies MHC class-II expression on IEC. In order to confirm that the induction of MHC class-II expression by IEC was a direct effect of IFNγ, intestinal organoids were cultured from the small intestine of B6.MHC class-II-GFP or B6.WT mice with IFNγ.

IFNγ: cytokine added to intestinal organoid cultures; known to potently induce MHC class-II expression
MHC class-II expression by EpCAM+ epithelial cells in organoids: did so rapidly in the presence of IFNγ
